One assay addresses T1, recombinant Abl1 kinase (Homo sapiens, UniProt P00519).
T1 construct: made in house
The experiment in a line: Recombinant Abl1 kinase inhibition assay ([γ-33P]ATP, peptide substrate). It is filed as biochemical. The method, then:
The reactions were stopped by adding 5 µL of 3% aq. H3PO4. […] H3PO4, and air-dried.

A further assay concerns KBM5. The experiment in a line: Cytotoxicity assay (resazurin) on KBM5. In kind it is cell-based. The note with it: Homo sapiens, KBM5; 72 h, resazurin assay; read-out: GI50 KBM5. For orientation: Resazurin is reduced to fluorescent resorufin, in cell work by metabolically active cells.
For the next assay, the system named is BV173. As to the kind of experiment: Cytotoxicity assay (resazurin) on BV173. In kind it is cell-based. Particulars: Homo sapiens, BV-173, 72 h. The method, then:
(§1) Human cell lines KCL22 and BV173 were obtained from the German Collection of Microorganisms and Cell Cultures, K562 and HEK-293T from the European Collection of Authenticated Cell Cultures. KBM5 cell line was kindly gifted by Vladimír Divoký. Development of KCL22 subclones B8 (T315I, 100%), F4 (E255K, 100%), and B10 (Y253H, 50%) was reported previously. All cell lines were cultivated in humidified incubator at 37 °C and in 5% CO2 according to the provider’s instructions in appropriate media supplemented with 10% fetal bovine serum, penicillin (100 IU/mL), streptomycin (100 µg/mL), and glutamine (4 mM).
(§2) Cytotoxicity was determined using resazurin, an indicator dye to measure oxidation-reduction reactions occurring in the mitochondria of live cells. The cells were seeded into 96-well plates and treated with compounds for 72 h (six different doses of each, in triplicate). After treatment, resazurin (Merck, Darmstadt, Germany) solution was added for 4 h, and the fluorescence of formed resorufin corresponding to live cell quantity was measured at 544 nm/590 nm (excitation/emission) using a Fluoroskan Ascent microplate reader (Labsystems, Vantaa, Finland).

The next assay concerns K562. As to the kind of experiment: Cytotoxicity assay (resazurin) on K562. In kind it is cell-based. The note with it: Homo sapiens, 72 h. The method, then: as §1, §2
The test system of another assay is HEK-293T. As to the kind of experiment: Cytotoxicity assay (resazurin) on non-neoplastic HEK-293T. It is filed as cell-based. Particulars: Homo sapiens, 72 h, non-neoplastic cells. The method, then:
as §1, §2

Assay [1] concerns KCL22 cells containing Bcr-Abl^WT. The experiment in a line: Cytotoxicity assay (resazurin) on KCL22 WT. In kind it is cell-based, human. Particulars: Homo sapiens, KCL-22, 72 h, read-out: GI50 KCL22 WT.
A further assay deals with KCL22 B8 (T315I, 100%). As to the kind of experiment: Cytotoxicity assay (resazurin) on KCL22 subclone B8. In kind it is cell-based. Particulars: Homo sapiens, KCL-22, read-out: GI50 KCL22 B8 T315I (100%), 72 h. The method, then: as §1, §2
The subject of the next assay is KCL22 F4 (E255K, 100%). As to the kind of experiment: Cytotoxicity assay (resazurin) on KCL22 subclone F4. Particulars: Homo sapiens, KCL-22, read-out: GI50 KCL22 F4 E255K (100%), 72 h. In kind it is cell-based. The method, then: as §1, §2
Another assay has as its system KCL22 B10 (Y253H, 50%). The experiment in a line: Cytotoxicity assay (resazurin) on KCL22 subclone B10. It is filed as cell-based. Particulars: Homo sapiens, KCL-22, read-out: GI50 KCL22 B10 Y253H (50%), 72 h. The method, then: as §1, §2
Assay [2] deals with KBM5, BV173, K562 (Bcr-Abl rearranged cell lines). As to the kind of experiment: Cytotoxicity across cell lines with Bcr-Abl rearrangement. In kind it is cell-based. Particulars: Homo sapiens, read-out: GI50 in Bcr-Abl rearranged cell lines (span over cell lines). The method, then: as §1, §2
The test system of another assay is KCL22 WT cells. The experiment in a line: Cell cycle flow cytometry, KCL22 WT. It is filed as cell-based, human. The note with it: 24 h treatment, increasing concentration up to 5 µM. The method, then: (§3) The cell lines were seeded into 96-well plates and then treated with compounds for 24 h. After treatment, the cells were directly stained by adding 5 × staining solution (17 mM trisodium citrate dihydrate, 0.5% IGEPAL® CA-630, 7.5 mM spermine tetrahydrochloride, 2.5 mM Tris; pH 7.6 containing 50 μg/mL propidium iodide). DNA content was measured by flow cytometry using a 488 nm laser (BD FACS Verse with software BD FACSuite™, version 1.0.6.). Cell cycle distribution was analyzed using ModFit LT 5.0.9 (Verity Software House, Augusta, ME, USA).
A general note: A flow cytometer gives signals particle by particle.

For assay [3], the system named is KCL22 B8 cell line containing Bcr-Abl^T315I. The experiment in a line: Cell cycle flow cytometry, KCL22 B8. It is filed as cell-based, human. The note with it: 24 h treatment.
Method: The cell lines were seeded into 96-well plates and then treated with compounds for 24 h. After treatment, the cells were directly stained by adding 5 × staining solution (17 mM trisodium citrate dihydrate, 0.5% IGEPAL® CA-630, 7.5 mM spermine tetrahydrochloride, 2.5 mM Tris; pH 7.6 containing 50 μg/mL propidium iodide). […] Cell cycle distribution was analyzed using ModFit LT 5.0.9 (Verity Software House, Augusta, ME, USA).
The subject of another assay is KCL22 F4 (E255K). As to the kind of experiment: Cell cycle flow cytometry, KCL22 F4. In kind it is cell-based, human. Particulars: 24 h treatment. The method, then: as §3
For a further assay, the system named is KCL22 B10 (Y253H). The experiment in a line: Cell cycle flow cytometry, KCL22 B10. It is filed as cell-based, human. Particulars: 24 h treatment. The method, then: as §3
The test system of assay [4] is p-Crkl, p-STAT5, PARP, cyclin A in WT KCL22 cell line. The experiment in a line: Immunoblotting of Bcr-Abl pathway proteins, WT KCL22. In kind it is cell-based, human. Particulars: immunoblot, 24 h treatment. The method, then: (§4) Cell lysates were separated on SDS–polyacrylamide gels and electroblotted onto nitrocellulose membranes. After blocking, overnight incubation with specific primary antibodies was performed, followed by wash and incubation with peroxidase-conjugated secondary antibodies (Cell Signalling). Peroxidase activity was detected with SuperSignal West Pico reagents (Thermo Scientific, Waltham, MA, USA) using a CCD camera LAS-4000 (Fujifilm, Tokyo, Japan). The following specific primary antibodies were used: Cell Signalling: anti-STAT5 (#94205), anti-p-STAT5 Y694 (#9351), anti-Crkl (#3182), anti-p-Crkl Y207 (#3181), anti-cyclin A (#4656), anti-p-Bcr Y177 (#3901), and anti-PARP (#9532); Santa Cruz Biotechnology: anti-β-actin (#sc-47778).
(In general: In western blotting, separated proteins are transferred to a membrane and probed.)

The subject of assay [5] is STAT5 phosphorylation, PARP cleavage in KCL22 F4. As to the kind of experiment: Immunoblotting of Bcr-Abl pathway proteins, KCL22 F4. It is filed as cell-based, human. Particulars: immunoblot, 24 h treatment. The method, then: as §4
In assay [6] the test system is STAT5 phosphorylation, PARP cleavage in KCL22 B10. The experiment in a line: Immunoblotting of Bcr-Abl pathway proteins, KCL22 B10. Particulars: immunoblot, 24 h treatment. In kind it is cell-based, human. The method, then: as §4

Like-named read-outs stand apart in the source and are kept apart here.

T1 sequence (P00519 whole entry): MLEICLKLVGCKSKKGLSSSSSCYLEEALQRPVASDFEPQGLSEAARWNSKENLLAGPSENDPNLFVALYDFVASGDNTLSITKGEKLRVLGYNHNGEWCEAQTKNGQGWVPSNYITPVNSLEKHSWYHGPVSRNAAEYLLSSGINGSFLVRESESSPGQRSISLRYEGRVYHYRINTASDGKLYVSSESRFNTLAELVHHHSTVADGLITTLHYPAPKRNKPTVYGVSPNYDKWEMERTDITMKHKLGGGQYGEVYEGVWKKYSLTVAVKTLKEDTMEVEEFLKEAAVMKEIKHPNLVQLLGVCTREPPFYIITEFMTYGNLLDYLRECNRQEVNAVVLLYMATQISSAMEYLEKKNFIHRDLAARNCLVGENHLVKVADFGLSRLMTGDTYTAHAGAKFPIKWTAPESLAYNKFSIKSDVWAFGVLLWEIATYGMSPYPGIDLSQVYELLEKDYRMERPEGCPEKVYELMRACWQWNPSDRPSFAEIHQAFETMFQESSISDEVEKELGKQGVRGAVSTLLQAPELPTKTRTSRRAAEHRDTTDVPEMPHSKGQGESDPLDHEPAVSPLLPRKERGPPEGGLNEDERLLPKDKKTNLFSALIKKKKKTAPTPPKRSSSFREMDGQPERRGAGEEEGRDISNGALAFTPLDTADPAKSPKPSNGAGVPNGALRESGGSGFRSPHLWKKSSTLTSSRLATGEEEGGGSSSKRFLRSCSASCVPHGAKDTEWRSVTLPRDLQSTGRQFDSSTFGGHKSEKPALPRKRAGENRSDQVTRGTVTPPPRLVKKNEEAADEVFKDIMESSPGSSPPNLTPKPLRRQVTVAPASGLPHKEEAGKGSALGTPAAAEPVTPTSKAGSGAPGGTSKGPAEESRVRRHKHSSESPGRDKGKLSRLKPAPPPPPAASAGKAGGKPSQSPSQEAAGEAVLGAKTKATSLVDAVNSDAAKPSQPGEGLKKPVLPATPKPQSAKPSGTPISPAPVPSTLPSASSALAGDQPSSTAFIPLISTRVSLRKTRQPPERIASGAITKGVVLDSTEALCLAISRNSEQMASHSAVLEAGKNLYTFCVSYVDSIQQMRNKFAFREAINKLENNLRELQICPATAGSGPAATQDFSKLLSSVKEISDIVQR

As a reminder, the GI50 is the concentration at which growth is held to half of that of the control. On to `OCCN1CCN(c2ccc(Nc3nc(Nc4cccc(F)c4)c4ncn(CC5CC5)c4n3)cc2)CC1` [Compound 11b, 2-(4-(4-((9-(Cyclopropylmethyl)-6-((3-fluorophenyl)amino)-9H-purin-2-yl)amino)phenyl)piperazin-1-yl)ethan-1-ol], for which the IC50 on recombinant Abl1 kinase (from the IC50 of Table S1, read-out: pIC50 (Table S1) (converted)) was 14 nM; on recombinant Abl1 kinase (recombinant Abl1, 1 µM ATP, at least three independent experiments, read-out: IC50 Abl) it was 15 ± 10 nM. The GI50 with KBM5 was 1300 ± 100 nM; in the assay on BV173, 1500 ± 200 nM; with K562, 700 ± 200 nM; in the assay with HEK-293T it was 5500 ± 600 nM; in assay [1], 2000 ± 400 nM; with KCL22 B8 (T315I, 100%), 11500 ± 1100 nM. The GI50 in the assay with KCL22 F4 (E255K, 100%) was 4100 ± 100 nM; in the assay with KCL22 B10 (Y253H, 50%), 2600 ± 200 nM; in assay [2] it was 700 to 1300 nM. In addition, the “Effect on cell cycle distribution, KCL22 WT” value in the assay on KCL22 WT cells was “significant block of WT cells in G1 phase”. Also, in assay [3], the “Effect on cell cycle distribution, KCL22 B8 (T315I)” value is “resistant”. The “Effect on cell cycle distribution, KCL22 F4” value in the assay on KCL22 F4 (E255K) is “arrested F4 and B10 mutant models in G1 phase”. Further, the “Effect on cell cycle distribution, KCL22 B10” value in the assay with KCL22 B10 (Y253H) was “arrested F4 and B10 mutant models in G1 phase”. In addition, in assay [4], the “Effect on Bcr-Abl downstream proteins, WT KCL22” value was “downregulated the levels of p-Crkl and p-STAT5”. Moreover, the “Effect on Bcr-Abl downstream proteins, KCL22 F4” value in assay [5] is recorded as “significantly pronounced in both mutant cell lines”. Besides, the “Effect on Bcr-Abl downstream proteins, KCL22 B10” value in assay [6] is “significantly pronounced in both mutant cell lines”.

(Values after publication PMC11125181, “New Inhibitors of Bcr-Abl Based on 2,6,9-Trisubstituted Purine Scaffold Elicit Cytotoxicity in Chronic Myeloid Leukemia-Derived Cell Lines Sensitive and Resistant to TKIs” (Pharmaceutics, 2024).)
